According to PMC12459020, “Chemical Probes that Target a Dissociative LuxR-Type Quorum Sensing Receptor in Gram-Negative Bacteria” (ACS Chemical Biology, 2025):
Entries after “also recorded” stand apart in the source; their conditions may differ. Where two headings read alike, the source gives them in different places.

Assays:
EsaR [1] = target: T1, EsaR (Pantoea stewartii subsp. stewartii, UniProt P54293); assay: cell-based; details: for activation at 100 µM / inhibition at 100 µM: 3.5 h; for activation at 100 µM: read-out: EsaR-activated (pesaS) [%] agonism; for inhibition at 100 µM: read-out: EsaR-activated (pesaS) antagonism; for EsaR agonism, in words: E. coli EsaR reporters, primary screen at 100 μM
T1 construct: expressed in transfected cells; host or cells: E. coli JLD271 (K12 ΔsdiA), arabinose-induced pJN105-esaR
In short: (§1)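 E. coli carrying arabinose-induced esaR plus pesaS (activated) or pesaR (repressed) promoter fused to lux or GFP; P. stewartii ESN51 GFP reporters also used.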

[2] = test system: P. stewartii ΔesaI (ESN51); assay: Mucoidy (exopolysaccharide) phenotypic assay on CPG agar; format: cell-based, Pantoea stewartii
Source text: In P. stewartii, EsaR regulates the production of the exopolysaccharide stewartan, which clogs the xylem of infected plants and leads to the wilt and lesions characteristic of Stewart’s wilt. EsaR binds directly to the rcsA promoter to repress transcription at low cell density, and when this repression is relieved at high cell density, RcsA contributes to activation of the cps gene cluster, which encodes the stewartan biosynthetic pathway. Exopolysaccharide production can be visualized by the growth of mucoid colonies on casamino acid-peptone-glucose (CPG) agar plates, and this phenotypic assay is commonly used to evaluate EsaR-mediated QS in P. stewartii. , To investigate the ability of the synthetic EsaR agonists uncovered here to regulate a QS-controlled phenotype in P. stewartii, selected compounds were tested for their ability to induce mucoidy in the P. stewartii (ΔesaI) strain, ESN51 (Figure ).
P. stewartii ΔesaI (ESN51) was grown on Casamino Peptone Glucose (CPG) agar (1 g/L casamino acids, 10 g/L peptone, 10 g/L glucose, 17 g/L agar) supplemented with a 1:1000 dilution of compound stocks or DMSO. Plates were incubated at 28 °C for 2 days without shaking before imaging with a smartphone camera (Apple iPhone X). Images are representative of at least two biological replicates.

ExpR2 [3] = details: cited from earlier work; for ExpR2 antagonism (percent inhibition): 5 µM compound against 5 µM OHHL, negative values indicate potential activators; for ExpR2 antagonism (percent inhibition) / EC50 / IC50: ref 6 (SI; Palmer et al., 2011); for ExpR2 [%] (agonism, percent activation): compounds at 200 μM, cellulase activity in P. versatile AC5099, ref Palmer et al., 2011 (main ref 44, SI ref 6); for EC50 / IC50: previously reported phenotypic reporter data
LuxR = details: cited from earlier work; for LuxR antagonism: 5 µM compound against 5 µM OHHL, negative values indicate potential activators, ref 6 (SI; Palmer et al., 2011); for LuxR [%] (agonism, activation): compounds at 200 μM, luminescence in V. fischeri ES114 (ΔluxI), ref Palmer et al., 2011 (main ref 44, SI ref 6)
ExpR1 = details: cited from earlier work; for ExpR1 antagonism: 5 µM compound against 5 µM OHHL, negative values indicate potential activators, ref 6 (SI; Palmer et al., 2011); for ExpR1 [%] (agonism, activation): compounds at 200 μM, cellulase activity in P. versatile AC5117, ref Palmer et al., 2011 (main ref 44, SI ref 6)
EsaR [4] = target: T1, EsaR; assay: cell-based; details: for activation at 100 µM / inhibition at 100 µM: 3.5 h; for activation at 100 µM: read-out: EsaR-repressed (pesaR) [%] agonism; for inhibition at 100 µM: read-out: EsaR-repressed (pesaR) antagonism
In short: as §1

ExpR2 [5] = target: ExpR2 (Pectobacterium versatile, UniProt Q1A4U9); assay: E. coli GFP reporter with ExpR2-activated promoter (prsmA); format: cell-based, Pectobacterium versatile Ecc71
Source text: One difference between our prior study in ExpR1/2 and that reported here in EsaR is that the former relied on QS-controlled phenotypes in P. versatile Ecc71 (i.e., cellulase and pectate lyase activity) to measure compound activity, unlike the heterologous transcriptional reporters used for EsaR. To further investigate the differences in antagonism assay data observed between EsaR and ExpR1/2, an E. coli reporter was created with an ExpR2 protein production plasmid (pJN105-expR2) and a reporter plasmid with an ExpR2-activated promoter (prsmA) controlling GFP (see Methods section). […] We return to possible explanations for the differences observed between the ExpR2 phenotypic assays and transcriptional reporters below.
Supporting Information — Stoutland et al.
Additional experimental methods.
Plasmid and reporter strain construction for ExpR2 reporters
Gibson assembly was used to create all constructs. Strains, plasmids and primers are listed in Ta b l es S1 and S2. Plasmid pJN105-expR2 was created by amplifying expR2 from Pectobacterium versatile Ecc71 genomic DNA and inserting it into pJN105, amplified from pJN105-esaR. […] E. coli reporter strains were created by transforming pJN105-expR2 and prsmA:GFP into electrocompetent E. coli JLD271.
E. coli ExpR2 reporter assay
Single colonies of the reporter strain were used to inoculate LB medium supplemented with appropriate antibiotics, and these cultures were grown overnight at 37 °C with shaking at 200 rpm.
Overnight cultures were diluted 1:10 in LB medium with appropriate antibiotics and grown at 37 °C to an OD600 of 0.22–0.27 before induction with 0.4 mg/mL arabinose. Arabinose concentration was optimized to maximize dynamic range of reporter data. Compounds were dissolved in DMSO, and 2 µL of this stock, or DMSO as a negative control, was added to each well of a clear-bottom, black 96-well plate prior to adding 198 µL of induced culture. Plates were incubated at 37 °C with shaking at 200 rpm for 3.5 hr. Assays were performed in technical and biological triplicate. Each well was mixed by pipetting before reading fluorescence and OD600. EC50 values were calculated based on a nonlinear regression of log(concentration) vs. response - variable slope (four parameters) using GraphPad Prism 9 software.

[6] = 10 μM in CPG agar, ESN51, 2 days at 28 °C
[7] = 100 μM in CPG agar, ESN51, 2 days at 28 °C
[8] = concentration not given, CPG agar, ESN51

T1 sequence (P54293 whole entry): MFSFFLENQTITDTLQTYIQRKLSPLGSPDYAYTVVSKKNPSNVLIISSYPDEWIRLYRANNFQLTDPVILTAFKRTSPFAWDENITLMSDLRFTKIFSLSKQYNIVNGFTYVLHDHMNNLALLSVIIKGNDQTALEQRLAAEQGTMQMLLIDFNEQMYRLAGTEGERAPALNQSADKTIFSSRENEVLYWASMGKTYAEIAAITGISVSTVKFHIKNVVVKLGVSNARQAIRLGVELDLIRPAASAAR
Chain of ExpR2 (Pectobacterium versatile, UniProt Q1A4U9) (Q1A4U9 entry or part of it): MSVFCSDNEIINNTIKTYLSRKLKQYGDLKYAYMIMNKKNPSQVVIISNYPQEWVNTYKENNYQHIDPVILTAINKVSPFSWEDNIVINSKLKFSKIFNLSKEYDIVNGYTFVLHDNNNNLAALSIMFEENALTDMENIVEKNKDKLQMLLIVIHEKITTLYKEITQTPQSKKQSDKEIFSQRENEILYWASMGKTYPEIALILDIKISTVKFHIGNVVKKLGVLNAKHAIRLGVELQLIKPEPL

Structure (SMILES) | induction of mucoidy [2, 6] | ExpR2 antagonism (percent inhibition) (ExpR2 [3]) [%] | ExpR2 [%] (agonism, percent activation) (ExpR2 [3]) | LuxR antagonism (LuxR) [%] | LuxR [%] (agonism, activation) (LuxR) | activation at 100 µM (EsaR [1]) [%] | inhibition at 100 µM (EsaR [1]) [%] | EsaR agonism, in words (EsaR [1]) | ExpR1 antagonism (ExpR1) [%] | ExpR1 [%] (agonism, activation) (ExpR1) | activation at 100 µM (EsaR [4]) [%] | inhibition at 100 µM (EsaR [4]) [%] | other results
CCCCCC(O)CC(=O)N[C@H]1CCOC1=O (some centres unmarked) [H2] | not at 10 μM |  |  |  |  |  |  |  |  |  |  |  | fold less potent than OOHL in EsaR (EsaR [1]; E. coli EsaR reporter EC50 values): ~20 fold; induction of mucoidy [2, 7]: induced mucoidy
CCCCCCS(=O)(=O)N[C@H]1CCOC1=O [A11] |  |  |  |  |  |  |  |  |  |  |  |  | induction of mucoidy [2, 8]: did not induce mucoidy
O=C(Cc1cccc([N+](=O)[O-])c1)N[C@H]1CCOC1=O [C14, 3-NO2 PHL] |  | -4 | 103 | -18 | 130 | 62 | -56 | moderate activator | -15 | 115 | 22 | -3 | EC50 (ExpR2 [3]): 0.5 µM; EC50 (EsaR [1]): ≥ 68 µM; EC50 (EsaR [4]): ≥ 98 µM; EC50 (ExpR2 [5]): 0.16 µM; ExpR2 agonism, in words (ExpR2 [5]; E. coli ExpR2 GFP reporter): acted as agonists; fold less potent than OHHL in ExpR2 E. coli reporter (ExpR2 [5]; E. coli ExpR2 GFP reporter): approximately 40 fold
O=C1OCC[C@@H]1NS(=O)(=O)c1ccccc1 [GAF 57] | not at 10 μM |  |  |  |  |  |  |  |  |  |  |  | induction of mucoidy [2, 7]: induced mucoidy
O=C1OCC[C@H]1NS(=O)(=O)c1ccc(Cl)c(Cl)c1 [GAF 55] |  |  |  |  |  |  |  |  |  |  |  |  | EsaR agonism at 100 μM (bound stated in text) (EsaR [1]; 100 μM, E. coli EsaR reporter): less than 50%; induction of mucoidy [2, 8]: did not induce mucoidy
O=C1OCC[C@@H]1NS(=O)(=O)c1cccc(Cl)c1 [GAF 28] | induced mucoidy |  |  |  |  |  |  |  |  |  |  |  | EC50 (EsaR [1]): 2.2 µM; EC50 (EsaR [4]): 2.2 µM
CCCC(=O)CC(=O)N[C@H]1CCOC1=O [OHHL, 3-oxo-hexanoyl HL, reference compound] | smooth | 0 | 100 | 0 | 100 | 100 | 0 |  | 0 | 100 | 100 | 0 | EC50 (ExpR2 [3]): 2 µM; EC50 (ExpR2 [5]): 0.0039 µM; ExpR2 agonism, in words (ExpR2 [5]; E. coli ExpR2 GFP reporter): acted as agonists
CCCCCCCCCCCC(=O)N[C@H]1CCOC1=O [dDHL, reference compound] |  | 62 | 31 | 73 | 1 | 45 | -63 |  | 77 | 0 | 35 | -27 | 
O=C(CCc1ccc(Br)cc1)N[C@H]1CCOC1=O [B7, 4-Br phenylpropanoyl HL] |  | 66 | 8 | 80 | 2 | 56 | -50 | agonized EsaR | 78 | 3 | 66 | -36 | IC50 (ExpR2 [3]): 2.75 µM; ExpR2 agonism, in words (ExpR2 [5]; E. coli ExpR2 GFP reporter): behaved as an agonist
CCCCCCCCCC(=O)CC(=O)N[C@H]1CCOC1=O [OdDHL, 3-(oxo)-dodecanoyl HL, reference compound] |  | 73 | 17 | 86 | 2 | 34 | -45 | agonized EsaR | 85 | 2 | 26 | -10 | IC50 (ExpR2 [3]): 0.75 µM
O=C(Cc1cccc(Cl)c1)N[C@H]1CCOC1=O [C6] |  | 54 | 81 | 65 | 61 | 49 | -40 |  | 63 | 49 | 29 | -58 | EC50 (EsaR [1]): ≥ 125 µM; EC50 (EsaR [4]): ≥ 216 µM
CCCC(=O)N[C@H]1CCOC1=O [BHL, reference compound] |  | 19 | 17 | 43 | 0 | 26 | -22 |  | 48 | 0 | 6 | -46 | 
CCCCCCCC(=O)N[C@H]1CCOC1=O [OHL, octanoyl HL, reference compound] |  | 38 | 79 | 86 | 25 | 98 | -95 | strongly activated; also recorded: agonized EsaR | 78 | 19 | 91 | -40 | 
